Data on four compounds can be found in patent US6777004B1, “Composition containing novel compound corniculatonin having antifungi properties and a process for preparing the same” (Council of Scientific & Industrial Research, priority 2001, dated 2004).

The subject of assay [1] is Trichophyton mentagrophytes. Kind of assay: Disk diffusion assay, zone of inhibition. The class given is cell-based. The note with it: 250 μg. disk^−1; incubated at room temperature 42-120 hrs. The text has this:
(§1) Agar: Czapek Malt Agar (Himedia laboratories Ltd.) was used for culturing Microsporumn gypseum, Trichophyton mentagrophytes T. tonsurans, T. violaceum, Aspergillus fresenii and A. niger. Mycological Agar (Himedia Laboratories Ltd) was used for Cryptococcus neoformans and Candida sp.
(§2) Pathogenic fungal strains of yeast and filamentous fungi identified and gifted by Dr. Savio from Goa Medical College, Bambolim, were used for the test. Strains of Aspergillus were isolated from the infected wheat bread with sterile needle; fungal material was surface sterilized using 0.5% sodium hypochlorite for 2-3 minutes, and then washed with small brush in sterile distilled water. Washed fungal material was transferred using needle into the sterile culture media and subcultured for purification by following standard methods (Collins and Taylor, 1967). Taxonomic identification was done by using various standard keys (Ainswort et al., 1973; Onion et al., 1981) and identification confirmed by Alka Pandey of Agarkar Research Institute, Pune.
(§3) Disk diffusion assay: The disk diffusion assay was used for screening of antifungal activity of the compound. The stock solution for the test was prepared by dissolving 5 mg of the compound of formula 1 in 200 μl dimethylsulfoxide (DMSO). From the stock solution 10 μl were spread on the paper disc so as to obtain the final concentration of 250 μg disk^−1 Control disk was applied reconstituted with only dimethylsulphoxide and were dried at 28-29° C. Completely dried disk was applied to innoculated plates. The plates were incubated at room temperature for the period between 42-120 hrs. to obtain maximum growth in the culture media. The zones of inhibition around the disks were measured.

The test system of assay [2] is Microsporum gypseum. Kind of assay: Disk diffusion assay, zone of inhibition. The class given is cell-based. The note with it: 250 μg. disk^−1; incubated at room temperature 42-120 hrs.
Description: as §1, §2, §3
A general note: Agar diffusion results depend on both activity and mobility in agar.

In assay [3] the test system is Aspergillus fresenii. The assay is described as follows: Disk diffusion assay, zone of inhibition. In kind it is cell-based. The note with it: 250 μg. disk^−1; incubated at room temperature 42-120 hrs.
Description: as §1, §2, §3

The subject of assay [4] is Aspergillus niger. The assay is described as follows: Disk diffusion assay, zone of inhibition. The note with it: 250 μg. disk^−1; incubated at room temperature 42-120 hrs. In kind it is cell-based.
Description: as §1, §2, §3

For assay [5], the system named is T. violaceum. The assay is described as follows: Disk diffusion assay, zone of inhibition. In kind it is cell-based. The note with it: 250 μg. disk^−1; incubated at room temperature 42-120 hrs.
Description: as §1, §2, §3

In assay [6] the test system is Cryptococcus neoformans. Kind of assay: Disk diffusion assay, zone of inhibition. The note with it: 250 μg. disk^−1; incubated at room temperature 42-120 hrs. The class given is cell-based.
Description: as §1, §2, §3

Assay [7] concerns Candida sp. Kind of assay: Disk diffusion assay, zone of inhibition. In kind it is cell-based. The note with it: 250 μg. disk^−1; incubated at room temperature 42-120 hrs.
Description: as §1, §2, §3

For assay [8], the system named is T. tonsurans. Kind of assay: Disk diffusion assay, zone of inhibition. In kind it is cell-based, Trichophyton tonsurans. The note with it: 250 μg. disk^−1; incubated at room temperature 42-120 hrs.
Description: as §1, §2
Disk diffusion assay: The disk diffusion assay was used for screening of antifungal activity of the compound. The stock solution for the test was prepared by dissolving 5 mg of the compound of formula 1 in 200 μl dimethylsulfoxide (DMSO). […] The zones of inhibition around the disks were measured.

Assay [9] deals with Trichophyton mentagrophytes. The assay is described as follows: Minimum Inhibitory Concentration (MIC), disk diffusion method. The class given is cell-based. The note with it: 3.12-50 μg per disk tested, 42-120 hrs at room temperature.
Description: as §1, §2
(§4) Innocula were adjusted to 100 μl of Cryptococcus neoformans, Candida sp., Microsporum gypseum, Trichophyton tonsurans, T. violaceum and Trichophyton mentagrophytes and spread on the appropriate plates, excess moisture was allowed to absorb for 10 minutes before applying disks. Immediately prior to the assay, the testing compound of formula 1, object of the present invention, the reference compounds amphotericin B and nystatin, potency approx:750 μ/mg and 480 USP unit/mg respectively, were reconstituted in triplicate in dimethylsulfoxide. […] From the stock solution 10 μl were spread on the paper disk so as to obtain final concentration of 50 μg disc^−1, 25 μg disc^−1, 12.5 μg disc^−1, 6.25 μg disc^−1 and 3.12 μg disk^−1. Disks were dried at reduced pressure in the dessicator, at 28-29° C. and applied to innoculated plates.
(§5) In testing, the compound of formula 1 was reconstituted in dimethylsulfoxide (DMSO) immediately prior to all assays. Dimethylsulfoxide (DMSO) alone had no detectable inhibitory effect on any of the tested microbes. Compound of formula 1 was tested against a diverse collection of yeast and filamentous fungi, some of which are resistant to the reference compound nystatin. Filamentous fungi were nystatin resistant.

Assay [10] relates to Microsporum gypseum. Described as above. In kind it is cell-based. The note with it: 3.12-50 μg per disk tested, 42-120 hrs at room temperature.
Description: as §1, §2, §4, §5

Assay [11] deals with Aspergillus fresenii. Described as above. The class given is cell-based. The note with it: 3.12-50 μg per disk tested, 42-120 hrs at room temperature.
Description: as §1, §2, §4, §5

The subject of assay [12] is T. violaceum. The description is as above. In kind it is cell-based. The note with it: 3.12-50 μg per disk tested, 42-120 hrs at room temperature.
Description: as §1, §2, §4, §5

Assay [13] concerns Cryptococcus neoformans. The assay is described as above. The note with it: 3.12-50 μg per disk tested, 42-120 hrs at room temperature. In kind it is cell-based.
Description: as §1, §2, §4, §5

The test system of assay [14] is Candida sp. Described as above. The class given is cell-based. The note with it: 3.12-50 μg per disk tested, 42-120 hrs at room temperature.
Description: as §1, §2, §4, §5

The subject of assay [15] is strains of yeast and filamentous fungi. Kind of assay: In vitro antifungal activity, disk diffusion, whole panel (summary in words). In kind it is cell-based. The note with it: for antifungal activity in words: all the strains of yeast and filamentous fungi tested. The procedure:
as §4, §5

In assay [16] the test system is T. tonsurans. The assay is described as follows: Minimum Inhibitory Concentration (MIC), disk diffusion method. The class given is cell-based, Trichophyton tonsurans. The note with it: 3.12-50 μg per disk tested, 42-120 hrs at room temperature.
Description: as §1, §2
Innocula were adjusted to 100 μl of Cryptococcus neoformans, Candida sp., Microsporum gypseum, Trichophyton tonsurans, T. violaceum and Trichophyton mentagrophytes and spread on the appropriate plates, excess moisture was allowed to absorb for 10 minutes before applying disks. […]

Assay [17] deals with Aspergillus niger. Described as above. The class given is cell-based. The note with it: 3.12-50 μg per disk tested, 42-120 hrs at room temperature.
Description: as §1, §2, §4, §5

In another assay the test system is Cladosporium cucumerinum. The note with it: plant pathogenic fungus Cladosporium cucumerinum; cited from earlier work.

Take “3-O-α-rhamnopyranosyl-rhamnopyranosyl-glucopyranosyl-glucoronopyranosylgluco-pyrano side 16 α-hydroxy-13,28-epoxy oleanane [Compound 1]”: the “Disk Diffusion Method, zone of inhibition” value was found to be 12 mm in assay [1]; 14 mm with Microsporum gypseum [2]; 10 mm with Aspergillus fresenii [3]; 4 mm with Aspergillus niger [4]; 13 mm in the assay with T. violaceum [5]; 9 mm with Cryptococcus neoformans [6]. The “Disk Diffusion Method, zone of inhibition” value in the assay on Candida sp. [7] is reported as 9 mm; in the assay on T. tonsurans [8], 14 mm. For the same compound, the MIC is 25-50 μg. disk^−1 in assay [9]; 12.5-25 μg. disk^−1 against Microsporum gypseum [10]; 25-50 μg. disk^−1 with Aspergillus fresenii [11]; 25-50 μg. disk^−1 in the assay on T. violaceum [12]; 6.25-12.5 μg. disk^−1 in the assay on Cryptococcus neoformans [13]; 6.25-12.5 μg. disk^−1 against Candida sp. [14]. For the same compound, the MIC against T. tonsurans [16] is listed as 12.5-25 μg. disk^−1. Further, the “antifungal activity in words” value in assay [15] was “fungicidal against all the strains of yeast and filamentous fungi tested except Aspergillus niger”.

`C[C@@H]1[C@H](O)[C@@H](C)/C=C/C=C/C=C/C=C/C=C/C=C/C=C/[C@H](O[C@@H]2O[C@H](C)[C@@H](O)[C@H](N)[C@@H]2O)C[C@@H]2O[C@](O)(C[C@@H](O)C[C@@H](O)[C@H](O)CC[C@@H](O)C[C@@H](O)CC(=O)O[C@H]1C)C[C@H](O)[C@H]2C(=O)O` [Amphotericin B, reference compound]: the MIC is listed as 6.25-12.5 μg. disk^−1 in assay [9]; 6.25-12.5 μg. disk^−1 against Microsporum gypseum [10]; 12.5-25 μg. disk^−1 in the assay with Aspergillus fresenii [11]; 12.5-25 μg. disk^−1 against Aspergillus niger [17]; 6.25-12.5 μg. disk^−1 against T. violaceum [12]; 3.12-6.25 μg. disk^−1 against Cryptococcus neoformans [13]. Moreover, the MIC was 3.12-6.25 μg. disk^−1 with Candida sp. [14] and 6.25-12.5 μg. disk^−1 in the assay with T. tonsurans [16]. Moreover, the “antifungal activity in words” value in assay [15] was “sensitive”.

As for `C[C@@H]1[C@H](O)[C@@H](C)/C=C/C=C/CC/C=C/C=C/C=C/C=C/C(O[C@H]2O[C@H](C)[C@@H](O)[C@H](N)[C@@H]2O)CC2O[C@](O)(CC(O)C(O)CCC(O)CC(O)CC(O)CC(=O)O[C@H]1C)CC(O)C2C(=O)O` (some centres unmarked) [Nystatin], the MIC against Cryptococcus neoformans [13] and with Candida sp. [14] was 6.25-12.5 μg. disk^−1 in each case. The “sensitivity of filamentous fungi in words” value in assay [15] (filamentous fungi) is “resistant”.

As for Sakurasaponin, the “antifungal amount in TLC bioassay” value in the assay with Cladosporium cucumerinum was 1 µg.
